From ChEMBL document CHEMBL1201862, “PubChem BioAssay data set” (2004)
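1) Cells in 96-well plates. 2) Compound, 48 h, 5 concentrations. 3) Linear interpolation between surrounding doses. 4) Unreached endpoint = highest concentration. GI50: concentration for 50% inhibition of growth.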 Activity calls are given as the source filed them. No stated cut-off is given here; in the data, active = GI50 up to about 1.1 µM and inactive = higher.

How the values were obtained:
Experiment in all cases: NCI tumour cell line growth inhibition, 48 h
DLD-1 = system: DLD-1
UO-31 = system: UO-31
DMS-273 = system: DMS-273
LOX IMVI = system: LOX IMVI
786-0 = system: 786-0
K562 = system: K562
COLO 205 = system: COLO 205
RPMI-8226 = system: RPMI-8226
SW-620 = system: SW-620
HCC 2998 = system: HCC 2998
IGROV-1 = system: IGROV-1
SF-268 = system: SF-268
OVCAR-5 = system: OVCAR-5
CAKI-1 = system: CAKI-1
KM12 = system: KM12
MOLT-4 = system: MOLT-4
OVCAR-4 = system: OVCAR-4
SNB-78 = system: SNB-78
CCRF-CEM = system: CCRF-CEM
SR = system: SR
SF-539 = system: SF-539
SK-OV-3 = system: SK-OV-3
UACC-62 = system: UACC-62
HCT-116 = system: HCT-116
HT-29 = system: HT-29
SK-MEL-2 = system: SK-MEL-2
OVCAR-8 = system: OVCAR-8
EKVX = system: EKVX
SNB-19 = system: SNB-19
SF-295 = system: SF-295
M19-MEL = system: M19-MEL
LXFL 529 = system: LXFL 529
NCI-H460 = system: NCI-H460
DMS-114 = system: DMS-114
NCI-H522 = system: NCI-H522
SK-MEL-5 = system: SK-MEL-5
Malme-3M = system: Malme-3M
HCT-15 = system: HCT-15
KM-20L2 = system: KM-20L2
OVCAR-3 = system: OVCAR-3
NCI-H226 = system: NCI-H226
XF498 = system: XF498
M14 = system: M14
UACC-257 = system: UACC-257
U-251 = system: U-251
SN12C = system: SN12C
HOP-62 = system: HOP-62
NCI-H23 = system: NCI-H23
A549 = system: A549
SNB-75 = system: SNB-75
SK-MEL-28 = system: SK-MEL-28
A498 = system: A498
RXF 393 = system: RXF 393
ACHN = system: ACHN
HOP-92 = system: HOP-92
HOP-18 = system: HOP-18
TK-10 = system: TK-10
HL-60 = system: HL-60

**Q.** Which results are given for CC1(C)CC(/C=C2/OC(=O)c3ccccc32)=C(C(N)=O)C(=O)O1?
**A.** GI50 (DLD-1): > 100 µM (inactive); GI50 (UO-31): 83.9 µM (inactive); GI50 (DMS-273): > 100 µM (inactive); GI50 (LOX IMVI): > 100 µM (inactive); GI50 (786-0): > 100 µM (inactive); GI50 (K562): > 100 µM (inactive); GI50 (COLO 205): 30.8 µM (inactive); GI50 (RPMI-8226): > 100 µM (inactive); GI50 (SW-620): > 100 µM (inactive); GI50 (HCC 2998): > 100 µM (inactive); GI50 (IGROV-1): > 100 µM (inactive); GI50 (SF-268): > 100 µM (inactive); GI50 (OVCAR-5): > 100 µM (inactive); GI50 (CAKI-1): > 100 µM (inactive); GI50 (KM12): > 100 µM (inactive); GI50 (MOLT-4): > 100 µM (inactive); GI50 (OVCAR-4): 72.1 µM (inactive); GI50 (SNB-78): > 100 µM (inactive); GI50 (CCRF-CEM): > 100 µM (inactive); GI50 (SR): > 100 µM (inactive); GI50 (SF-539): > 100 µM (inactive); GI50 (SK-OV-3): > 100 µM (inactive); GI50 (UACC-62): > 100 µM (inactive); GI50 (HCT-116): > 100 µM (inactive); GI50 (HT-29): > 100 µM (inactive); GI50 (SK-MEL-2): > 100 µM (inactive); GI50 (OVCAR-8): > 100 µM (inactive); GI50 (EKVX): > 100 µM (inactive); GI50 (SNB-19): > 100 µM (inactive); GI50 (SF-295): > 100 µM (inactive); GI50 (M19-MEL): > 100 µM (inactive); GI50 (LXFL 529): > 100 µM (inactive); GI50 (NCI-H460): > 100 µM (inactive); GI50 (DMS-114): > 100 µM (inactive); GI50 (NCI-H522): > 100 µM (inactive); GI50 (SK-MEL-5): > 100 µM (inactive); GI50 (Malme-3M): > 100 µM (inactive); GI50 (HCT-15): > 100 µM; GI50 (KM-20L2): > 100 µM (inactive); GI50 (OVCAR-3): > 100 µM (inactive); GI50 (NCI-H226): > 100 µM (inactive); GI50 (XF498): > 100 µM (inactive); GI50 (M14): > 100 µM (inactive); GI50 (UACC-257): > 100 µM (inactive); GI50 (U-251): > 100 µM (inactive); GI50 (SN12C): > 100 µM (inactive); GI50 (HOP-62): > 100 µM (inactive); GI50 (NCI-H23): > 100 µM (inactive); GI50 (A549): > 100 µM (inactive); GI50 (SNB-75): > 100 µM (inactive); GI50 (SK-MEL-28): > 100 µM (inactive)

**Q.** With CCCc1ccc(NCc2cc(OC)c(OC)c(OC)c2)cc1 as the molecule, how does the GI50 (DLD-1) read?
**A.** 23.9 µM (inactive)

**Q.** And the GI50 (UO-31)?
**A.** 24.7 µM (inactive)

**Q.** What about the GI50 (A498) of the same molecule?
**A.** 28.3 µM (inactive)

**Q.** And the GI50 (LOX IMVI)?
**A.** 15.7 µM (inactive)

**Q.** What about the GI50 (786-0) of the same molecule?
**A.** 22.4 µM (inactive)

**Q.** And the GI50 (K562)?
**A.** 12.1 µM (inactive)

**Q.** And the GI50 (RPMI-8226)?
**A.** 12.7 µM (inactive)

**Q.** What about the GI50 (IGROV-1) of the same molecule?
**A.** 24.4 µM (inactive)

**Q.** And the GI50 (SF-268)?
**A.** 27.7 µM (inactive)

**Q.** What about the GI50 (OVCAR-5) of the same molecule?
**A.** 26.6 µM (inactive)

**Q.** And the GI50 (KM12)?
**A.** 23.1 µM (inactive)

**Q.** And the GI50 (RXF 393)?
**A.** 32.3 µM (inactive)

**Q.** What about the GI50 (MOLT-4) of the same molecule?
**A.** 18.2 µM (inactive)

**Q.** And the GI50 (ACHN)?
**A.** 30.6 µM (inactive)

**Q.** What about the GI50 (HOP-92) of the same molecule?
**A.** 22.9 µM (inactive)

**Q.** And the GI50 (OVCAR-4)?
**A.** 32.4 µM (inactive)

**Q.** And the GI50 (SNB-78)?
**A.** 56.9 µM (inactive)

**Q.** And the GI50 (CCRF-CEM)?
**A.** 17.8 µM (inactive)

**Q.** What about the GI50 (HOP-18) of the same molecule?
**A.** 31.3 µM (inactive)

**Q.** And the GI50 (SF-539)?
**A.** 28.3 µM (inactive)

**Q.** And the GI50 (SK-OV-3)?
**A.** 22.3 µM (inactive)

**Q.** And the GI50 (UACC-62)?
**A.** 26.9 µM (inactive)

**Q.** And the GI50 (HCT-116)?
**A.** 24.7 µM (inactive)

**Q.** What about the GI50 (HT-29) of the same molecule?
**A.** 23.6 µM (inactive)

**Q.** And the GI50 (SK-MEL-2)?
**A.** 18.6 µM (inactive)

**Q.** And the GI50 (OVCAR-8)?
**A.** 35.3 µM (inactive)

**Q.** What about the GI50 (EKVX) of the same molecule?
**A.** 61 µM (inactive)

**Q.** What about the GI50 (SNB-19) of the same molecule?
**A.** 36.4 µM (inactive)

**Q.** And the GI50 (M19-MEL)?
**A.** 20.5 µM (inactive)

**Q.** What about the GI50 (LXFL 529) of the same molecule?
**A.** 17 µM (inactive)

**Q.** And the GI50 (NCI-H460)?
**A.** 55 µM (inactive)

**Q.** And the GI50 (DMS-114)?
**A.** 15.6 µM (inactive)

**Q.** And the GI50 (SK-MEL-5)?
**A.** 15.5 µM (inactive)

**Q.** And the GI50 (Malme-3M)?
**A.** 19.4 µM (inactive)

**Q.** What about the GI50 (HCT-15) of the same molecule?
**A.** 17.7 µM

**Q.** What about the GI50 (KM-20L2) of the same molecule?
**A.** 28.6 µM (inactive)

**Q.** What about the GI50 (TK-10) of the same molecule?
**A.** 59.8 µM (inactive)

**Q.** And the GI50 (XF498)?
**A.** 18.9 µM (inactive)

**Q.** What about the GI50 (UACC-257) of the same molecule?
**A.** 22.4 µM (inactive)

**Q.** What about the GI50 (U-251) of the same molecule?
**A.** 29.6 µM (inactive)

**Q.** What about the GI50 (SN12C) of the same molecule?
**A.** 22.3 µM (inactive)

**Q.** And the GI50 (HOP-62)?
**A.** 34.1 µM (inactive)

**Q.** What about the GI50 (NCI-H23) of the same molecule?
**A.** 22 µM (inactive)

**Q.** And the GI50 (A549)?
**A.** 41.8 µM (inactive)

**Q.** What about the GI50 (SNB-75) of the same molecule?
**A.** 29 µM (inactive)

**Q.** What about the GI50 (SK-MEL-28) of the same molecule?
**A.** 25.1 µM (inactive)

**Q.** For Cc1ncc(CI)c(CI)c1O, which GI50 (DLD-1) is on record?
**A.** 24.7 µM (inactive)

**Q.** What about the GI50 (UO-31) of the same molecule?
**A.** 2.5 µM (inactive)

**Q.** And the GI50 (DMS-273)?
**A.** 14.8 µM (inactive)

**Q.** And the GI50 (A498)?
**A.** > 100 µM (inactive)

**Q.** And the GI50 (786-0)?
**A.** 16.9 µM (inactive)

**Q.** What about the GI50 (K562) of the same molecule?
**A.** 5.85 µM (inactive)

**Q.** What about the GI50 (COLO 205) of the same molecule?
**A.** > 100 µM (inactive)

**Q.** What about the GI50 (RPMI-8226) of the same molecule?
**A.** 6.7 µM (inactive)

**Q.** What about the GI50 (HCC 2998) of the same molecule?
**A.** 18.8 µM (inactive)

**Q.** And the GI50 (IGROV-1)?
**A.** > 100 µM (inactive)

**Q.** What about the GI50 (SF-268) of the same molecule?
**A.** 24.3 µM (inactive)

**Q.** And the GI50 (CAKI-1)?
**A.** 63.2 µM (inactive)

**Q.** What about the GI50 (MOLT-4) of the same molecule?
**A.** 12.7 µM (inactive)

**Q.** And the GI50 (HOP-92)?
**A.** > 100 µM (inactive)

**Q.** And the GI50 (OVCAR-4)?
**A.** > 100 µM (inactive)

**Q.** And the GI50 (SNB-78)?
**A.** > 100 µM (inactive)

**Q.** And the GI50 (CCRF-CEM)?
**A.** 3.93 µM (inactive)

**Q.** What about the GI50 (SR) of the same molecule?
**A.** 12.6 µM (inactive)

**Q.** What about the GI50 (SF-539) of the same molecule?
**A.** 23.4 µM (inactive)

**Q.** What about the GI50 (SK-OV-3) of the same molecule?
**A.** > 100 µM (inactive)

**Q.** What about the GI50 (UACC-62) of the same molecule?
**A.** > 100 µM (inactive)

**Q.** What about the GI50 (HCT-116) of the same molecule?
**A.** 15.6 µM (inactive)

**Q.** And the GI50 (SK-MEL-2)?
**A.** 21.3 µM (inactive)

**Q.** What about the GI50 (M19-MEL) of the same molecule?
**A.** > 100 µM (inactive)

**Q.** What about the GI50 (LXFL 529) of the same molecule?
**A.** > 100 µM (inactive)

**Q.** And the GI50 (NCI-H460)?
**A.** > 100 µM (inactive)

**Q.** And the GI50 (DMS-114)?
**A.** > 100 µM (inactive)

**Q.** What about the GI50 (NCI-H522) of the same molecule?
**A.** 3.34 µM (inactive)

**Q.** What about the GI50 (Malme-3M) of the same molecule?
**A.** 17.5 µM (inactive)

**Q.** And the GI50 (HL-60)?
**A.** 2.22 µM (inactive)

**Q.** What about the GI50 (NCI-H226) of the same molecule?
**A.** 2.39 µM (inactive)

**Q.** And the GI50 (XF498)?
**A.** 20.1 µM (inactive)

**Q.** And the GI50 (M14)?
**A.** > 100 µM (inactive)

**Q.** And the GI50 (SN12C)?
**A.** 17.2 µM (inactive)

**Q.** And the GI50 (HOP-62)?
**A.** 17.2 µM (inactive)

**Q.** And the GI50 (NCI-H23)?
**A.** 19.4 µM (inactive)

**Q.** What about the GI50 (SNB-75) of the same molecule?
**A.** 16.8 µM (inactive)

**Q.** What about the GI50 (SK-MEL-28) of the same molecule?
**A.** 18 µM (inactive)
